In assay [1] the target is T1, Thromboxane A2 receptor (Homo sapiens) (UniProt P21731).
T1 sequence (whole entry): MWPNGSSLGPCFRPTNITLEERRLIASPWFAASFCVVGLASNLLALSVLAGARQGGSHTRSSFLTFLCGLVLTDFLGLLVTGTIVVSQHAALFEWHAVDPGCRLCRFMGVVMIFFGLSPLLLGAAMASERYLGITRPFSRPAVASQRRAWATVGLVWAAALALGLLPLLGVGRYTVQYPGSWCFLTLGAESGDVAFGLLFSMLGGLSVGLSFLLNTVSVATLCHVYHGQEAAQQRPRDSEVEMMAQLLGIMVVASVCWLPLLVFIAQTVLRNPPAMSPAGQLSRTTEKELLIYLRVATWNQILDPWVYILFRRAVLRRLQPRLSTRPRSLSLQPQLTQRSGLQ
Description: Competition factor for Thromboxane A2 receptor binding affinity CF = (IC50-test)/(IC50-standard).

The species entered for a further assay is Homo sapiens. Description: Inhibition of ADP-induced aggregation of human platelet rich plasma. The assay is classed as functional.
The target of assay [2] is T1, Thromboxane A2 receptor (Homo sapiens). The experiment in a line: Competition factor was evaluated for Thromboxane A2 receptor binding affinity CF = (IC50-test)/(IC50-standard).
The target is the same in assay [3]. The experiment in a line: Competition factor was evaluated for Thromboxane A2 receptor binding affinity CF = (IC50-test)/(IC50-standard) by using [3H]iloprost agonist at 10 nM.

As for `Cc1ccc(S(=O)(=O)N[C@H]2CC/C(=N\OCC3CCCCC3)[C@@H]2C/C=C\CCCC(=O)O)cc1`, the CF in assay [1] is 1. The compound further gave an IC50 in the assay listed under Homo sapiens of 600 nM.

Consider `O=C(O)CCC/C=C\C[C@H]1/C(=N/OCc2ccc(C(F)(F)F)cc2)CC[C@@H]1NS(=O)(=O)c1ccc(F)cc1`, for which the CF in assay [1] was 0.13. In the assay listed under Homo sapiens, inhibition was half-maximal at 620 nM (IC50).

Turning to `O=C(O)CC/C=C\C[C@@H]1[C@@H](NS(=O)(=O)c2ccc(F)cc2)CC[C@@H]1O`, the CF in assay [1] stood at 200. Besides, the IC50 in the assay listed under Homo sapiens was 1600 nM.

As for `O=C(O)CCC/C=C\C[C@@H]1[C@@H](NS(=O)(=O)c2ccc(F)cc2)CC[C@@H]1O`, the CF in assay [1] was found to be 2.1. Also, in the assay listed under Homo sapiens, the IC50 was found to be 640 nM.

As to `O=C(O)CCC/C=C\C[C@H]1/C(=N/OCC2CCCCC2)CC[C@@H]1NS(=O)(=O)c1ccc(Cl)cc1`, the IC50 in the assay listed under Homo sapiens was determined as 1700 nM. The CF in assay [2] was found to be 0.62.

With `O=C(O)CCC/C=C\C[C@@H]1[C@H](O)CC[C@H]1NS(=O)(=O)c1ccc(Cl)cc1`, the CF in assay [1] came out at 85. Moreover, half-maximal inhibition in the assay filed under Homo sapiens (IC50) was put at 2200 nM.

In turn, `Cc1ccc(S(=O)(=O)N[C@H]2CCC(=O)[C@@H]2C/C=C\CCCC(=O)O)cc1` gave a CF in assay [1] of 6.5. In the assay filed under Homo sapiens, this compound returned an IC50 of 670 nM.

The compound `Cc1ccc(S(=O)(=O)N[C@@H]2CC[C@@H](O)[C@H]2C/C=C\CCCC(=O)O)cc1` showed a CF in assay [1] of 340. In the assay listed under Homo sapiens, the IC50 was found to be 5800 nM.

Turning to `Cc1ccc(S(=O)(=O)N[C@H]2CC/C(=N\OCc3ccc(C(F)(F)F)cc3)[C@@H]2C/C=C\CCCC(=O)O)cc1`, the CF in assay [1] was less than 1. It took 180 nM to reach half-maximal inhibition in the assay listed under Homo sapiens (IC50).

As for `O=C(O)CCC/C=C\C[C@@H]1[C@H](O)CC[C@H]1NS(=O)(=O)c1ccc(F)cc1`, the CF in assay [1] was 26. Further, half-maximal inhibition in the assay listed under Homo sapiens (IC50) was put at 6000 nM.

As for `Cc1ccc(S(=O)(=O)N[C@H]2CC[C@H](O)[C@@H]2C/C=C\CCC(=O)O)cc1`, the CF in assay [1] was 135. In the assay filed under Homo sapiens, this compound displayed an IC50 of 2500 nM.

In turn, `Cc1ccc(S(=O)(=O)N[C@H]2CC[C@H](O)[C@@H]2C/C=C\CCCC(=O)O)cc1` had a CF in assay [1] of 7. Besides, 500 nM corresponded to half-maximal inhibition in the assay listed under Homo sapiens (IC50).

Consider `O=C(O)CCC/C=C\C[C@@H]1[C@@H](NS(=O)(=O)c2ccc(Cl)cc2)CC[C@@H]1O`, for which the CF in assay [1] was 0.68. In addition, it took 190 nM to reach half-maximal inhibition in the assay filed under Homo sapiens (IC50).

In turn, `O=C(O)CCC/C=C\C[C@H]1/C(=N/OC(c2ccccc2)c2ccccc2)CC[C@@H]1NS(=O)(=O)c1ccc(Cl)cc1` had a CF in assay [1] of 4. This compound also came in with an IC50 in the assay filed under Homo sapiens of 17000 nM.

In the case of `O=C(O)CCC/C=C\C[C@H]1C(=O)CC[C@@H]1NS(=O)(=O)c1ccc(Cl)cc1`, the CF in assay [1] amounted to 2.6. In the assay filed under Homo sapiens, this compound showed an IC50 of 640 nM.

Consider `O=C(O)CCC/C=C\C[C@H]1C(=O)CC[C@@H]1NS(=O)(=O)c1ccc(F)cc1`, for which the CF in assay [1] amounted to 6.4. In the assay filed under Homo sapiens, this compound displayed an IC50 of 500 nM.

`Cc1ccc(S(=O)(=O)N[C@H]2CC/C(=N\OC(c3ccccc3)c3ccccc3)[C@@H]2C/C=C\CCCC(=O)O)cc1`: in assay [1], the CF worked out at 4.5. Besides, the IC50 in the assay filed under Homo sapiens was determined as 5600 nM.

As for `C[C@@H]1CC/C(=N\OC(c2ccccc2)c2ccccc2)[C@H]1C/C=C\CCCC(=O)O`, the CF is 175 in assay [1] and 25 in assay [3]. In the assay listed under Homo sapiens, this compound had an IC50 of 800 nM.

Regarding `O=C(O)CCC/C=C\C[C@H]1/C(=N/OCC2CCCCC2)CC[C@@H]1NS(=O)(=O)c1ccc(F)cc1`, the CF in assay [1] was 0.5. For the same compound, it took 1800 nM to reach half-maximal inhibition in the assay filed under Homo sapiens (IC50).

Compound `O=C(O)CCC/C=C\C[C@H]1/C(=N/OC(c2ccccc2)c2ccccc2)CC[C@@H]1NS(=O)(=O)c1ccc(F)cc1` showed a CF in assay [1] of 6.9. This compound returned an IC50 in the assay filed under Homo sapiens of 17000 nM.

For the compound `O=C(O)CC/C=C\C[C@@H]1[C@@H](NS(=O)(=O)c2ccc(Cl)cc2)CC[C@@H]1O`, the CF in assay [1] was determined as 31. Moreover, in the assay listed under Homo sapiens, it took 1800 nM to reach half-maximal inhibition (IC50).

`O=C(O)CCC/C=C\C[C@H]1/C(=N/OCc2ccc(C(F)(F)F)cc2)CC[C@@H]1NS(=O)(=O)c1ccc(Cl)cc1` yielded a CF in assay [1] of 0.07. The compound also showed an IC50 in the assay filed under Homo sapiens of 200 nM.

As usually defined, the IC50 is the point on the concentration scale where inhibition reaches its midpoint. The low end stands for inhibition by little substance, the high end for a need for much substance.
